The test system of series [1] is Trypanosoma brucei brucei. Nature of the series: Antitrypanosomal activity against bloodstream form of Trypanosoma brucei brucei Lister 427 after 72 hrs by resazurin based fluorescence assay. The series is classed as functional. As to conditions: Lister 427, 72 h. Background: Resazurin is reduced to fluorescent resorufin, in cell work by metabolically active cells.

Series [2] can be described thus: Cytotoxicity against human MRC5 SV2 cells after 48 hrs by resazurin based fluorescence assay. It counts as cell-based. As to conditions: MRC-5 SV2, 48 h.
Series [3] in a line: Kinetic aqueous solubility of the compound by CLND method. The series is classed as physicochemical. As to conditions: read-out: Kinetic_solubility.
In a further series the test system is Trypanosoma cruzi. Put plainly: Antitrypanosomal activity against Trypanosoma cruzi Tulahuen C4 amastigotes infected in rat L6 cells after 96 hrs by beta-galactosidase reporter gene assay. Conditions: Tulahuen C4, L6, 96 h. It counts as functional, cell-based. A general note: A reporter such as luciferase makes a cellular process visible.
A further series relates to L6. Put plainly: Cytotoxicity against rat L6 cells assessed as reduction in cell viability after 72 hrs by resazurin based fluorescence assay. Conditions: L6, 72 h.
The next series has as its system Leishmania donovani. Put plainly: Antileishmanial activity against intracellular […] stage of Leishmania donovani MHOM/ET/67/HU3 infected in human THP1 cells measured after 72 hrs by luciferase reporter gene assay. It counts as functional, cell-based. Conditions: MHOM/ET/67/HU3, THP-1, 72 h.
The subject of a further series is THP-1. Nature of the series: Cytotoxicity against human THP1 cells assessed as reduction in cell viability after 72 hrs by MTT assay. The series is classed as cell-based. As to conditions: THP-1, 72 h. (In general: Tetrazolium assays rely on reduction of a dye to a coloured formazan, in cell work by metabolically active cells.)

The pEC50 is the EC50 on a negative log10 scale, so that one unit is a factor of ten.

pEC50: −log10 of the molar value. ≈ marks a conversion by molar mass, not a printed value. Some results are limits rather than exact numbers.

For the molecule `Cc1ccc2[nH]c(=O)nc(-c3ccccc3)c2c1`, the pEC50 in series [1] is less than 4.40; in series [2], less than 4.30; with Trypanosoma cruzi it was less than 4.70; with L6, less than 4.30; in the series on Leishmania donovani, less than 5.30; with THP-1 it was less than 4.30. Moreover, the solubility kinetic in series [3] stood at 80 µM (≈ 18.9 µg/mL).

`O=c1nc(-c2ccccc2)c2ccc(-c3ccncc3)cc2[nH]1`: the pEC50 was 4.85 in series [1]; less than 4.30 in series [2]; less than 4.70 in the series on Trypanosoma cruzi; less than 5.30 in the series with Leishmania donovani; less than 4.30 with THP-1.

`O=c1nc(-c2ccccc2)c2cc(-c3cccc(N4CCOCC4)c3)ccc2[nH]1`: the negative logarithm of the EC50 (pEC50) in series [1] is 5.29; in series [2], less than 4.30; with Trypanosoma cruzi, 4.82; in the series with L6, less than 4.30; with Leishmania donovani it was less than 5.30; in the series on THP-1, less than 4.30.

For `O=c1nc(-c2ccccc2)c2cc(-c3cn[nH]c3)ccc2[nH]1`, the pEC50 is 5.84 in series [1]; 4.66 in series [2]; 5.08 with Trypanosoma cruzi; less than 4.30 with L6; less than 5.30 in the series with Leishmania donovani; less than 4.30 with THP-1.

Turning to `O=c1nc(-c2ccccc2)c2cc(-c3cnc4ccccc4c3)ccc2[nH]1`, the negative-log EC50 (pEC50) in series [1] was 5.76; in series [2] it was less than 4.30; in the series on Trypanosoma cruzi, 5.14; in the series with L6, less than 4.80; in the series with Leishmania donovani it was less than 5.30; with THP-1 it was less than 4.30.

Turning to `O=c1nc(-c2ccccc2)c2ccc(-c3cncnc3)cc2[nH]1`, the pEC50 in series [1] was less than 4.40; in series [2] it was less than 4.30; in the series on Trypanosoma cruzi, less than 4.70; with Leishmania donovani, less than 5.30; in the series on THP-1 it was less than 4.30.

On to `O=c1nc(-c2ccccc2)c2cc(-c3ccccc3F)ccc2[nH]1`, for which the negative-log EC50 (pEC50) in series [1] was 5.43; in series [2] it was less than 4.30; with Trypanosoma cruzi, 5.06; in the series on L6 it was 4.25; in the series on Leishmania donovani, less than 5.30; with THP-1, 4.30.

For `Cc1ccncc1-c1ccc2[nH]c(=O)nc(-c3ccccc3)c2c1`, the pEC50 in series [1] is 5.29; in series [2], less than 4.30; in the series on Trypanosoma cruzi, 5.05; with L6, less than 4.30; in the series with Leishmania donovani, less than 5.30; in the series with THP-1, less than 4.30.

Take `N#Cc1ccc(-c2cccc3[nH]c(=O)nc(-c4ccccc4)c23)cc1`: the pEC50 in series [1] is less than 4.40; in series [2], less than 4.30; with Trypanosoma cruzi it was less than 4.70; with L6, less than 4.30; with Leishmania donovani it was less than 5.30; in the series with THP-1 it was less than 4.30.

For the molecule `N#Cc1ccc(-c2ccc3[nH]c(=O)nc(-c4ccccc4)c3c2)cc1`, the pEC50 is 5.77 in series [1]; less than 4.30 in series [2]; 4.76 with Trypanosoma cruzi; less than 4.30 in the series with L6; less than 5.30 in the series on Leishmania donovani; less than 4.30 in the series with THP-1.

Turning to `Cc1cc(-c2ccc3[nH]c(=O)nc(-c4ccccc4)c3c2)ccn1`, the negative-log EC50 (pEC50) in series [1] is 5.27; in series [2] it was less than 4.30; in the series on Trypanosoma cruzi, 4.77; in the series on L6, less than 4.30; in the series on Leishmania donovani, less than 5.30; in the series on THP-1, less than 4.30.

As for `Cc1noc(C)c1-c1ccc2[nH]c(=O)nc(-c3ccccc3)c2c1`, the pEC50 in series [1] is 5.67; in series [2] it was less than 4.30; in the series with Trypanosoma cruzi it was 4.92; with L6 it was less than 4.30; in the series on Leishmania donovani, less than 5.30; in the series with THP-1 it was less than 4.30.

For the molecule `O=c1nc(-c2ccccc2)c2ccc(-c3ccc(F)cc3)cc2[nH]1`, the pEC50 is 5.33 in series [1]; less than 4.30 in series [2]; less than 4.70 in the series with Trypanosoma cruzi; less than 5.30 in the series on Leishmania donovani; less than 4.30 in the series with THP-1.

In the case of `CN(C)c1ccc(-c2ccc3[nH]c(=O)nc(-c4ccccc4)c3c2)cn1`, the negative logarithm of the EC50 (pEC50) in series [1] is 5.69; in series [2], less than 4.30; in the series on Trypanosoma cruzi, 4.85; with L6 it was 4.30; in the series with Leishmania donovani, less than 5.30; in the series with THP-1 it was less than 4.30.

Regarding `O=c1nc(-c2ccccc2)c2cc(-c3ccc(N4CCOCC4)cc3)ccc2[nH]1`, the pEC50 in series [1] was 5.66; in series [2] it was 4.62; with Trypanosoma cruzi, 5.08; in the series with L6, 4.64; with Leishmania donovani it was less than 5.30; with THP-1 it was less than 4.30.

Regarding `O=c1nc(-c2ccccc2)c2cc(-c3cccc(F)c3)ccc2[nH]1`, the pEC50 in series [1] is 5.37; in series [2], less than 4.30; in the series with Trypanosoma cruzi, 5.02; in the series on L6, 4.64; in the series on Leishmania donovani, less than 5.30; in the series on THP-1 it was less than 4.30.

For `Cc1ccc(-c2ccc3[nH]c(=O)nc(-c4ccccc4)c3c2)cn1`, the pEC50 in series [1] is 5.28; in series [2], less than 4.30; in the series with Trypanosoma cruzi, 4.83; in the series on L6, less than 4.30; with Leishmania donovani, less than 5.30; with THP-1, less than 4.30.

Turning to `Cn1cc(-c2ccc3[nH]c(=O)nc(-c4ccccc4)c3c2)cn1`, the pEC50 in series [1] is 5.25; in series [2], less than 4.30; in the series on Trypanosoma cruzi, less than 4.70; in the series with L6, less than 4.30; in the series on Leishmania donovani, less than 5.30; in the series on THP-1, less than 4.30.

For `O=c1nc(-c2ccccc2)c2cc(N3CCNCC3)ccc2[nH]1`, the pEC50 in series [1] was less than 4.70; in series [2], less than 4.60; in the series on Trypanosoma cruzi it was less than 5.00; in the series on L6 it was less than 4.60; with Leishmania donovani, less than 5.60; in the series on THP-1, less than 4.60. Besides, the solubility kinetic in series [3] is more than 1000 µM.

As for `O=c1nc(-c2ccccc2)c2ccc(-c3cccc(N4CCOCC4)c3)cc2[nH]1`, the pEC50 in series [1] is 5.31; in series [2], less than 4.30; in the series on Trypanosoma cruzi, less than 4.70; in the series on L6, 5.34; in the series on Leishmania donovani, less than 5.30; in the series on THP-1, less than 4.30.

As for `COc1ccccc1-c1nc(=O)[nH]c2ccc(-c3cc[nH]n3)cc12`, the pEC50 in series [1] is 4.54; in series [2], less than 4.30; with Trypanosoma cruzi it was 4.70; in the series with L6 it was less than 4.30; in the series on Leishmania donovani, less than 5.30; with THP-1, less than 4.30.

For `O=c1nc(-c2ccccc2)c2cc(-c3ccccc3)ccc2[nH]1`, the pEC50 in series [1] was 5.31; in series [2] it was less than 4.30; with Trypanosoma cruzi, less than 4.70; with L6 it was less than 4.30; with Leishmania donovani, less than 5.30; with THP-1, less than 4.30.

For `Cc1cncc(-c2ccc3[nH]c(=O)nc(-c4ccccc4)c3c2)c1`, the pEC50 in series [1] is 5.28; in series [2] it was less than 4.30; with Trypanosoma cruzi, 5.02; in the series on L6 it was less than 4.30; in the series on Leishmania donovani, less than 5.30; in the series on THP-1, less than 4.30.

For the molecule `O=c1nc(-c2ccccc2)c2cc(-c3ccc(N4CCCC4)nc3)ccc2[nH]1`, the negative logarithm of the EC50 (pEC50) was 5.75 in series [1]; less than 4.30 in series [2]; 5.20 in the series with Trypanosoma cruzi; less than 4.30 with L6; less than 5.30 with Leishmania donovani; less than 4.30 with THP-1.

On to `O=c1nc(-c2ccccc2)c2ccc(-c3cccnc3)cc2[nH]1`, for which the pEC50 in series [1] is less than 4.40; in series [2] it was less than 4.30; with Trypanosoma cruzi, less than 4.70; in the series on L6, 5.11; with Leishmania donovani, less than 5.30; with THP-1, less than 4.30.

Consider `CNC(=O)c1cccc(-c2ccc3[nH]c(=O)nc(-c4ccccc4)c3c2)c1`, for which the pEC50 in series [1] is 5.24; in series [2], less than 4.30; in the series with Trypanosoma cruzi, less than 4.70; in the series with L6 it was less than 4.30; in the series with Leishmania donovani, less than 5.30; in the series on THP-1 it was less than 4.30.

Take `O=c1nc(-c2ccccc2)c2cc(-c3cncnc3)ccc2[nH]1`: the pEC50 is 5.00 in series [1]; less than 4.30 in series [2]; less than 4.70 in the series on Trypanosoma cruzi; less than 4.30 in the series with L6; less than 5.30 in the series on Leishmania donovani; less than 4.30 with THP-1.

As for `Cn1ccc(-c2cccc3[nH]c(=O)nc(-c4ccccc4)c23)n1`, the pEC50 in series [1] is less than 4.40; in series [2], less than 4.30; with Trypanosoma cruzi it was less than 4.70; with L6, less than 4.30; with Leishmania donovani, less than 5.30; with THP-1, less than 4.30.

As for `O=c1nc(-c2ccccc2)c2cc(-c3ccc(C(F)(F)F)nc3)ccc2[nH]1`, the pEC50 is 5.28 in series [1]; less than 4.30 in series [2]; 4.73 with Trypanosoma cruzi; less than 4.30 in the series with L6; less than 5.30 in the series with Leishmania donovani; less than 4.30 in the series with THP-1.

As to `Cn1nccc1-c1ccc2[nH]c(=O)nc(-c3ccccc3)c2c1`, the pEC50 in series [1] was 5.22; in series [2] it was less than 4.30; with Trypanosoma cruzi, 4.76; in the series with L6, less than 4.30; in the series on Leishmania donovani, less than 5.30; in the series on THP-1 it was less than 4.30.

On to `CN1CCN(c2ccc3[nH]c(=O)nc(-c4ccccc4)c3c2)CC1`, for which the negative logarithm of the EC50 (pEC50) in series [1] is less than 4.40; in series [2] it was less than 4.30; in the series on Trypanosoma cruzi it was less than 4.70; in the series with L6, less than 4.30; with Leishmania donovani, less than 5.30; in the series with THP-1 it was less than 4.30. The solubility kinetic in series [3] was more than 1000 µM.

On to `O=c1nc(-c2ccccc2)c2cc(-c3ccc(F)cc3)ccc2[nH]1`, for which the pEC50 in series [1] is 5.41; in series [2] it was less than 4.30; in the series on Trypanosoma cruzi, 5.06; in the series with L6, 4.30; with Leishmania donovani, less than 5.30; with THP-1, less than 4.30.

Turning to `O=c1nc(-c2ccccc2)c2cc(-c3cccnc3)ccc2[nH]1`, the negative logarithm of the EC50 (pEC50) is 5.27 in series [1]; less than 4.30 in series [2]; 4.80 in the series on Trypanosoma cruzi; less than 4.30 in the series on L6; less than 5.30 in the series with Leishmania donovani; less than 4.30 with THP-1.
